Results as given in patent US20250288573A1 (H. LEE MOFFITT CANCER CENTER AND RESEARCH INSTITUTE, INC., priority 2018, published 2025).
“Also recorded” adds a separate entry of the source. Where two headings read alike, the source gives them in different places.

Legend:
cereblon (CRBN) [1] = biological target: T1, cereblon (CRBN) (Mus musculus, UniProt Q8C7D2); assay: Western blot of cereblon (CRBN) levels in mouse CD8+ T cells; format: cell-based; details: 24 hours of treatment
T1 construct: endogenous in cells; host or cells: mouse CD8+ T cells
T1 sequence (Q8C7D2 1-445): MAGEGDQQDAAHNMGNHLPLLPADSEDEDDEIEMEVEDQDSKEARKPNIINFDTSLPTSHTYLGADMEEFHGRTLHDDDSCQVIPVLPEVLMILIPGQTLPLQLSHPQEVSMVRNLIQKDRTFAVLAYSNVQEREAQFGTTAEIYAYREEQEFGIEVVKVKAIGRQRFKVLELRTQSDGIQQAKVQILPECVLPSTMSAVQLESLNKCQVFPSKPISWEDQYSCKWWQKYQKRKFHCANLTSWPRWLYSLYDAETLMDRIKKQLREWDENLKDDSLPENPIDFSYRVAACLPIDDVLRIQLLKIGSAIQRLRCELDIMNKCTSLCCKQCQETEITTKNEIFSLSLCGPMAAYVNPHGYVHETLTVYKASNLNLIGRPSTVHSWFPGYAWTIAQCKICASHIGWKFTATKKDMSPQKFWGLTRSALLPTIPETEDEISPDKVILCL

IL-2 [2] = assay: IL-2 mRNA and protein secretion in anti-CD3 stimulated human T cells; format: cell-based; details: anti-CD3 stimulation without CD28 co-stimulation, relative to DMSO
Description: (§1) IL-2 mRNA (FIG. 8A) and protein secretion (FIG. 8B) were measured in cells and culture supernatant, respectively. […] Cytokine levels were determined by ELISA. […] Results are representative of three independent experiments. […] Statistical analysis was conducted ANOVA, followed by Dunnett's multiple comparison test. *=p<0.05, ***=p<0.001 FIGS. 9A-9C show the structure of cereblon is concerved across different species. […] FIG. 9C is an overlay of human and mouse cereblon (Val380 and Ile391 for mCRBN; Glu377 and Val388 for hCRBN), are demarcated as thin tubes.
Cereblon acts as the E3 ubiquitin ligase (UbL) substrate receptor component of the DNA damage binding protein 1 (DDB1), cullin-4 (CUL4A and B), and ROC1 complex ([…]). […] Blood Cancer J 5, e354, 2015). […] […]. […] Br. J. Haematol. […] Leukemia 26:1425-1429, 2012), which is the hallmark of the immunomodulatory drug class.

IL-2 [3] = assay: IL-2 production in mouse T cells; format: cell-based; details: absence of CD28 co-stimulation
Description: as §1

c-Myc = assay: Western blot of c-Myc in activated human T cells; format: cell-based; details: human T cells activated by anti-CD3ε/anti-CD28
From the text: (§2) On the right is a schematic diagram of CRBN/DDB1/CUL4A and ubiquitin degrading function. […] DMSO was used in these experiments as a vehicle control. […] CRBN is shown for human T cells and vinculin loading control of human and mouse T cells are provided. […] Results shown are representative of three independent experiments.

BRD4 = biological target: T2, BRD4 (Mus musculus, UniProt Q9ESU6); assay: Western blot of BRD4 in activated mouse T cells; format: cell-based; details: for BRD4 expression / degradation: mouse T cells activated with anti-CD3ε/anti-CD28
T2 construct: endogenous in cells
From the text: as §2

CRBN = biological target: T3, CRBN (Homo sapiens, UniProt Q96SW2); assay: Western blot for expression of CRBN relative to vinculin in human T cells (CRBN degradation); format: cell-based; details: for remaining activity at 10 µM / remaining activity at 0.01 µM: read-out: Relative Density of CRBN (% of DMSO); for remaining activity at 0.01 µM: 24 h, 10nM
T3 construct: endogenous in cells; host or cells: primary human T cells / CD8+ T cells from peripheral blood
From the text: Bortez=bortezomib; MG132=proteasome inhibitor; MLN4924=NEDD8 inhibitor.
This assay is a standard Western blot assay for expression of CRBN relative to vinculin.
[…] 0.1 percent DMSO was used as a vehicle control.

Ikaros = biological target: T4, Ikaros (Homo sapiens, UniProt Q13422); assay: Ikaros degradation in isolated human CD8+ T cells; format: cell-based; details: increasing doses
T4 construct: This molecule has a DC50 for Ikaros at 10 μM and for CRBN at <1 μM; endogenous in cells; host or cells: isolated human CD8+ T cells
Description: Isolated human CD8+ T cells were treated with increasing doses of EC1-168. This molecule has a DC50 for Ikaros at 10 μM and for CRBN at <1 μM. Unique functional properties may be afforded to the CDM compounds via distinct protein recruitment.
Isolated human CD8+ T cells were treated with increasing doses of EC2-134. This molecule has a DC50 for Ikaros at 10 nM and for CRBN at 100 μM. Unique functional properties may be afforded to the CDM compounds via distinct protein recruitment.

[4] = tested on: CD25 (IL-2 receptor alpha); assay: Expression of activation marker CD25 on activated human T cells; format: cell-based; details: 10 nM
From the text: FIG. 23 is a graph showing human T cells activated with a series of immunomodulatory drugs lead to higher levels of expression of the activation marker CD25 (IL-2 receptor alpha) compared to unstimulated cells and control activated cells.

IKZF1 = assay: Western blot of IKZF1 (Ikaros) in T cells and multiple myeloma cells; format: cell-based
cereblon (CRBN) [5] = biological target: T5, cereblon (CRBN) (Homo sapiens, UniProt Q96SW2); assay: Kd and % inhibition from FI; format: binding; details: for Kd: FI, read-out: Kd (FI) (converted); for inhibition at 200 µM: read-out: % inhibition @ 200 uM from *FI
cereblon (CRBN) [6] = biological target: T5, cereblon (CRBN); assay: Kd from ITC; format: binding
cereblon = biological target: T6, cereblon (Mus musculus, UniProt Q8C7D2); assay: Western blot of cereblon in splenic T cells / splenocytes of mice treated orally with a single dose; format: in vivo; details: for cereblon levels in purified splenic T cells: single oral dose of 75 mg/kg
T6 construct: from tissue; host or cells: spleen: purified splenic T cells and total splenocytes of treated mice
T6 sequence (Q8C7D2 1-445): T1 sequence (Q8C7D2 1-445)
Description: FIG. 24 is a graph of results from Western blots from purified splenic T cells of mice treated orally with a single dose of 75 mg/kg SM2-145. Three mice were obtained from each time point (1, 6, 12, and 24 hrs) after treatment.
FIG. 25 contains a Western blot analysis of purified T cells from mice treated orally with a single dose of 75 mg/kg EC2-035 and EC2-134.

[7] = tested on: T cells expanded from patients with melanoma; assay: Cytokine assays (IL-2, IFN-γ) in T cells expanded from patients with melanoma; format: cell-based, human
From the text: Veh=vehicle-treated cells DMSO 0.1%

Pharmacokinetic studies = details: in vivo
[8] = isolated human CD8+ T cells, increasing doses, read-out: DC50 for CRBN
[9] = single oral dose of 12.5, 25, and 75 mg/kg

T5 sequence (Q96SW2 whole entry, species assumed): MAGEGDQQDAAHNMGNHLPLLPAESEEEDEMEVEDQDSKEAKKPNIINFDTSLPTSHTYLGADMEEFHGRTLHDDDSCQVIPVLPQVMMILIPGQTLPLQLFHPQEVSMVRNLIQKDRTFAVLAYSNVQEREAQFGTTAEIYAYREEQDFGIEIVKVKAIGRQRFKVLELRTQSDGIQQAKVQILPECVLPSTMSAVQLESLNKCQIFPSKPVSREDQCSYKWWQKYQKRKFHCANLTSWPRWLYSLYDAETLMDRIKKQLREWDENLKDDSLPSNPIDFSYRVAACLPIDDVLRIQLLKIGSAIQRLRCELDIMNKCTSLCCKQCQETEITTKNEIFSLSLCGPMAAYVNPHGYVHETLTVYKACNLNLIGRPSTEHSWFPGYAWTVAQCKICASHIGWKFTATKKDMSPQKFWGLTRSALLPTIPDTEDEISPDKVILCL
T3 sequence (Q96SW2 whole entry): as the sequence (Q96SW2 whole entry, species assumed) above
T4 sequence (Q13422 whole entry): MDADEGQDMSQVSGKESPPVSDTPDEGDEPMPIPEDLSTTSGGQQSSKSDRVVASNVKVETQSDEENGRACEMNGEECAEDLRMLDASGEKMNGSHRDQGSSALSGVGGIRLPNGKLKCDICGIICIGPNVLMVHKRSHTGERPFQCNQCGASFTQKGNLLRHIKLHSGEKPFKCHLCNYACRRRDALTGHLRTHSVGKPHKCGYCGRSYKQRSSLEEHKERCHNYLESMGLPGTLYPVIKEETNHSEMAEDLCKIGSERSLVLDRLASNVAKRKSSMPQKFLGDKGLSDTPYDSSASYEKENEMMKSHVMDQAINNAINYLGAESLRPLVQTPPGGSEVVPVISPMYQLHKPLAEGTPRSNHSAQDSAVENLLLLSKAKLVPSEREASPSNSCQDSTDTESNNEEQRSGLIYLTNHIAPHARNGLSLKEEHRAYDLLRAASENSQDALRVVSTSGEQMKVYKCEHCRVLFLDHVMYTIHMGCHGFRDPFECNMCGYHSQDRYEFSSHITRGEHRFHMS

In the case of `Nc1cccc2c1CN(C1CCC(=O)NC1=O)C2=O` (centres unmarked) [lenalidomide, Lenalidomide], the “cereblon (CRBN) levels (Western blot)” value (cereblon (CRBN) [1]) is reported as “not”, the “IL-2 production (mRNA and protein secretion)” value (IL-2 [2]) is reported as “significantly increased; also recorded: augments IL-2 production” and the IL-2 production (IL-2 [3]) is reported as “not”.

For `Cc1sc2c(c1C)C(c1ccc(Cl)cc1)=N[C@@H](CC(=O)NCCCCNC(=O)COc1cccc3c1C(=O)N(C1CCC(=O)NC1=O)C3=O)c1nnc(C)n1-2` (some centres unmarked) [dBET1], the c-Myc suppression (c-Myc) was “Suppression of c-Myc is evident” and the “BRD4 expression / degradation” value (BRD4) was “degrades BRD4”.

In the case of `CS(=O)(=O)O.O=C1CC[C@H](N2Cc3c(OCc4ccc(CN5CCN(Cc6ccc(COc7cccc8c7CN([C@H]7CCC(=O)NC7=O)C8=O)cc6)CC5)cc4)cccc3C2=O)C(=O)N1` [EC1-168, (4-(4-(((2-((S)-2,6-dioxopiperidin-3-yl)-1-oxoisoindolin-4-yl)oxy)methyl)benzyl)-114-piperazin-1-yl)(4-(((2-((S)-2,6-dioxopiperidin-3-yl)-1-oxoisoindolin-4-yl)oxy)methyl)phenyl)methylium methyl sulfonate], the DC50 (CRBN; [8]) is reported as less than 1 µM, the DC50 (Ikaros) is reported as 10 µM and the “expression of the activation marker CD25” value [4] is reported as “induces more immune potentiation”.

In the case of `Cc1sc2c(c1C)C(c1ccc(Cl)cc1)=N[C@@H](CC(=O)OC(C)(C)C)c1nnc(C)n1-2` [JQ1], the c-Myc suppression (c-Myc) is reported as “Suppression of c-Myc is evident”.

With `Nc1cccc2c1C(=O)N(C1CCC(=O)NC1=O)C2=O` (centres unmarked) [pomolidomide] the IKZF1 expression (IKZF1) was “decreased”, the “BRD4 expression / degradation” value (BRD4) was “failed to reduce BRD4 expression” and the “effect on dBET1-induced BRD4 degradation” value (BRD4; mouse T cells, Pom 0.5 μM with dBET1) was “reversed the degradation observed through dBET1”.

For `O=C1CCC(N2Cc3c(CCCOCCCc4cccc5c4CN(C4CCC(=O)NC4=O)C5=O)cccc3C2=O)C(=O)N1` (centres unmarked) [SM2-144, 3,3′-((Oxybis(propane-3,1-diyl))bis(1-oxoisoindoline-4,2-diyl))bis(piperidine-2,6-dione)], the remaining activity at 10 µM (CRBN) was 3.05%, the remaining activity at 0.01 µM (CRBN; human T cells, 24 hours) was 24.1% and the Kd (cereblon (CRBN) [5]) was 5.88 µM. For the same molecule, the inhibition at 200 µM (cereblon (CRBN) [5]) was 73.9 ± 14.9% and the Kd (cereblon (CRBN) [6]) was 4.4 ± 1.4 µM.

In the case of `O=C1CCC(N2C(=O)c3cccc(NCc4ccc(CNc5cccc6c5C(=O)N(C5CCC(=O)NC5=O)C6=O)cc4)c3C2=O)C(=O)N1` (centres unmarked) [EC2-134], the remaining activity at 10 µM (CRBN) is reported as 13.8%, the remaining activity at 0.01 µM (CRBN; human T cells, 24 hours) is reported as 4% and the DC50 (CRBN; [8]) is reported as 100 µM. For the same molecule, the DC50 (Ikaros) was 0.01 µM, the “cereblon levels in purified splenic T cells” value (cereblon) was “sustained reduction in cereblon levels at 6, 9 and 12 hours” and the “cereblon levels in purified T cells” value (cereblon; [9]) was “inverse dose dependent levels of cereblon”. For the same molecule, the “cereblon levels in total splenocytes” value (cereblon; [9]) was “inverse dose dependent levels of cereblon” and the “cereblon levels in purified T cells at the lowest dose” value (cereblon; single oral dose, lowest dose (12.5 mg/kg), compared with Crbn-/- T cells) was “significantly reduced”.

For `Cc1nc2cccc(N)c2c(=O)n1C1CCC(=O)NC1=O` (centres unmarked) [CC122, avadomide, reference compound], the “T cell function (IL-2 and IFN-γ after anti-CD3 (OKT3) activation)” value [7] was “actively increasing T cell function”.

In the case of `O=C(COc1cccc2c1C(=O)N(C1CCC(=O)NC1=O)C2=O)NCCOCCOCCNC(=O)COc1cccc2c1C(=O)N(C1CCC(=O)NC1=O)C2=O` (centres unmarked) [SM2-048], the remaining activity at 10 µM (CRBN) is reported as 15.8%, the remaining activity at 0.01 µM (CRBN; human T cells, 24 hours) is reported as 99.5% and the “CRBN expression (Western blot)” value (CRBN; anti-CD3/anti-CD28 stimulated human T cells, 0.1, 1, and 10 μM) is reported as “significant reduction in CRBN expression”. For the same molecule, the Kd (cereblon (CRBN) [5]) was 11.3 µM, the inhibition at 200 µM (cereblon (CRBN) [5]) was 68.2 ± 3.33% and the Kd (cereblon (CRBN) [6]) was 12.3 ± 0.4 µM.

For `O=C1CCC(N2Cc3c(CCCOCCOCCCc4cccc5c4CN(C4CCC(=O)NC4=O)C5=O)cccc3C2=O)C(=O)N1` (centres unmarked) [SM2-145, 3,3′-(((Ethane-1,2-diylbis(oxy))bis(propane-3,1-diyl))bis(1-oxoisoindoline-4,2-diyl))bis(piperidine-2,6-dione)], the remaining activity at 10 µM (CRBN) was 7.21%, the remaining activity at 0.01 µM (CRBN; human T cells, 24 hours) was 21% and the “specificity for CRBN degradation over Ikaros” value (CRBN; human T cells, 24 hours) was “Specificity is shown for CRBN degradation over Ikaros”. The “intracellular cereblon levels (Western blot)” value (CRBN; human T cells, 24 hours of treatment) was “reduced intracellular cereblon levels”, the DC50 (CRBN; human T cells, 24 hours, read-out: DC50 (concentration leading to 50% degradation of cereblon)) was 0.00288 µM and the Kd (cereblon (CRBN) [5]) was 6.59 ± 1.57 µM. The inhibition at 200 µM (cereblon (CRBN) [5]) was 70.19 ± 0.28%, the Kd (cereblon (CRBN) [6]) was 6.6 ± 0.8 µM and the “cereblon (CRBN) levels (Western blot)” value (cereblon (CRBN) [1]) was “reduced cereblon (CRBN) levels”. For the same molecule, the “cereblon levels in purified splenic T cells” value (cereblon) was “partial reduction in cereblon levels at 6 hours”, the “stability in pharmacokinetic studies” value (Pharmacokinetic studies) was “Poor stability” and the “T cell function (IL-2 and IFN-γ after anti-CD3 (OKT3) activation)” value [7] was “actively increasing T cell function”.
